Results: PubChem BioAssay (NCI)
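Interpolation was linear, between the two tested concentrations surrounding the appropriate level; five concentrations were tested over 48 hours in 96-well plates. At the TGI there is no net growth.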

Columns and labels:
Assay in all cases: NCI tumour cell line growth inhibition, 48 h
MOLT-4 leukemia = tested on: MOLT-4 leukemia
SF-295 CNS = tested on: SF-295 CNS
RPMI-8226 leukemia = tested on: RPMI-8226 leukemia
NCI/ADR-RES ovarian = tested on: NCI/ADR-RES ovarian
MCF7 breast = tested on: MCF7 breast
KM12 colon = tested on: KM12 colon
SK-MEL-28 melanoma = tested on: SK-MEL-28 melanoma
NCI-H226 lung = tested on: NCI-H226 lung
HOP-62 NSCLC = tested on: HOP-62 NSCLC
SNB-75 CNS = tested on: SNB-75 CNS

Row | Structure (SMILES) | TGI (MOLT-4 leukemia) [µM] | TGI (SF-295 CNS) [µM] | TGI (RPMI-8226 leukemia) [µM] | TGI (NCI/ADR-RES ovarian) [µM] | TGI (MCF7 breast) [µM] | TGI (KM12 colon) [µM] | TGI (SK-MEL-28 melanoma) [µM] | TGI (NCI-H226 lung) [µM] | TGI (HOP-62 NSCLC) [µM] | TGI (SNB-75 CNS) [µM]
1 | CC(C)CCC[C@@H](C)[C@H]1CC[C@H]2[C@@H]3CC=C4C[C@@H](OC(=O)c5cccc6c(=O)c7ccccc7[nH]c56)CC[C@]4(C)[C@H]3CC[C@]12C | > 75 | > 75 | > 75 | > 75 | > 75 | > 75 | > 75 | > 75 | > 75 | > 75
2 | Cc1c2c3cc(O)ccc3nc-2n(C)c2ccccc12 | 3.32 | 13 | > 100 | 3.4 | 9.82 | 5.28 | 5.97 | 8.54 | 7.99 | 5.83
3 | COC(=O)C(/C(=N/NC(=O)c1ccncc1)C(=O)Nc1ccccc1OC)c1nc2ccc(Cl)cc2[nH]c1=O (stereo not given) | > 100 | > 100 | > 100 | > 100 | > 100 | > 100 | > 100 | > 100 | > 100 | > 100
4 | CC[C@]12C=CCN3CCC4(c5cc(N=Nc6ccccc6)c(OC)cc5N(C)[C@H]4[C@@](O)(C(=O)OC)[C@@H]1OC(C)=O)[C@@H]32 (stereo not given in full) | 34.6 | 34.5 | 59.3 | 55.6 | 34.4 | 37.7 | 36.8 | 51.5 | 35.2 | –
5 | N#CC1=C(N)C(C#N)(C#N)C(c2ccc(F)cc2)C=C1C1CC1 (stereo not given) | 25.5 | 25.8 | 40.4 | 41.8 | 17.1 | 16 | 39.3 | – | 25.8 | 18.1
6 | Cc1csc2c1C(=O)c1ccsc1C2=O | 27.2 | 2.99 | 20.1 | 5.9 | 2.98 | 11 | 2.95 | 23.4 | – | 3.51
7 | CCN(CC)CCO/N=C1\CC[C@H]2[C@@H]3CC=C4C[C@@H](O)CC[C@]4(C)[C@H]3CC[C@]12C | 40.4 | 38.6 | 47.6 | > 100 | 31.6 | 38.5 | 31.1 | 33.1 | 35.2 | 91.1
8 | COc1ccc(C(O)c2ccc3c(c2)OCO3)cc1 (stereo not given) | > 100 | > 100 | – | > 100 | > 100 | > 100 | > 100 | > 100 | > 100 | > 100
9 | N#CCCC1C(C#N)C2CC1C1C3C=CC(C3)C21 (stereo not given) | > 100 | > 100 | > 100 | > 100 | > 100 | > 100 | > 100 | > 100 | – | > 100
10 | Nc1ccc2c(c1)C(=O)c1ccccc1-2 | 75.1 | > 100 | > 100 | > 100 | > 100 | > 100 | > 100 | > 100 | > 100 | > 100
11 | CC1=C(C(=O)OCCc2ccc([N+](=O)[O-])cc2)C(c2ccccc2[N+](=O)[O-])C(C(=O)OC(C)C)=C(C)N1 (stereo not given) | 9.93 | > 100 | > 100 | 20 | > 100 | > 100 | > 100 | 65.3 | > 100 | > 100
